Columns and labels:
Format in all cases: cell-based, human
Panc-1 cells = experiment: MTT assay, Panc-1 cells; conditions: 48 hours, read-out: IC50 with respect to the Panc-1 cells
Protocol: (§1) JeKo-1 cells of a cell line derived from a human mantle cell lymphoma were seeded in a 96-well plate at 1×10^4 cells/well/100 μL. In addition, Panc-1 cells of a cell line derived from a human pancreatic cancer were seeded in a 96-well plate at 3×10^3 cells/well/100 μL.
(§2) Subsequently, 3EZ,20Ac-ingenol at final concentrations of 0 (control), 0.1, 0.5, 1, 5, and 10 μM was added the wells of the respective cells, and culturing was performed for 48 hours. Subsequently, cell proliferation was examined by MTT assay using a Cell Proliferation Kit I (Roche Applied Science).
(§3) First, JeKo-1 cells were seeded in a 96-well plate at 1×10^4 cells/well/100 μL. Subsequently, irinotecan at a final concentration of 0 (control), 0.5, 1, 5, 10, 20, and 30 μM was added to the wells of the cells and culturing was performed for 48 hours. In addition, Panc-1 cells were seeded in a 96-well plate at 3×10^3 cells/well/100 μL. Subsequently, irinotecan at a final concentration of 0 (control), 0.5, 1, 5, 10, 20, 30, and 50 μM was added to the wells of the cells and culturing was performed for 48 hours. Subsequently, cell proliferation was examined by MTT assay using a Cell Proliferation Kit I (Roche Applied Science).

ATR protein [1] = experiment: Western blotting, ATR protein, JeKo-1 cells; conditions: 0.5 μM
Protocol: Specifically, JeKo-1 cells were cultured for 0 (control), 12, 24, and 48 hours in the presence of 0.5 μM of 3EZ,20Ac-ingenol. In addition, Panc-1 cells were cultured for 0 (control), 12, 24, and 48 hours in the presence of 3 μM of 3EZ,20Ac-ingenol.
Subsequently, ATR protein, p53 protein, and phosphorylated p53 (hereinafter also referred to as “p-p53”) protein in the respective cells were respectively detected using an anti-ATR antibody (Cell Signaling Technology), an anti-p53 antibody (Santa Cruz), and an anti-p-p53 antibody (Cell Signaling Technology). Furthermore, as a loading control, actin protein was detected using an anti-actin antibody (Sigma).

JeKo-1 cells = experiment: MTT assay, JeKo-1 cells; conditions: 48 hours
Protocol: as §1, §2, §3

ATR protein [2] = experiment: Western blotting, ATR protein, BALL-1 cells; conditions: 0.5 μM
Protocol: The effects of 3EZ,20Ac-ingenol treatment on expression of ATR were examined. First, BALL-1 cells were cultured in the presence of 3EZ,20Ac-ingenol at a final concentration of 0.5 μM for 12, 24, and 48 hours, and an expression level of ATR protein was analyzed by Western blotting using an anti-ATR antibody (Santa Cruz). Cells cultured in the absence of 3EZ,20Ac-ingenol were used as controls.
Subsequently, siRNA against ATR (“ON-TARGET Plus Human ATR (545) siRNA-SMARTpool,” GE Dharmacon) was introduced into BALL-1 cells at a final concentration of 50 nM and incubated for 48 hours. Subsequently, a cell medium was replaced with a new medium containing 3EZ,20Ac-ingenol at a final concentration of 0.5 μM and culturing was performed for 12, 24, and 48 hours, and an expression level of ATR protein was analyzed by Western blotting using an anti-ATR antibody (Santa Cruz).
Cells into which control siRNA (“ON-TARGET Plus Nontargeting pool,” GE Dharmacon) was introduced and which were then cultured in the absence of 3EZ,20Ac-ingenol were used as controls.

Structure (SMILES): CCCCC/C=C\C=C\C(=O)O[C@H]1C(C)=C[C@]23C(=O)[C@@H](C=C(COC(C)=O)[C@@H](O)[C@]12O)[C@H]1[C@@H](C[C@H]3C)C1(C)C [3EZ,20Ac-ingenol, 3-O-(2′E,4′Z-decadienoyl)-20-O-acetylingenol]
- IC50 (Panc-1 cells): 3000 nM
- expression level of ATR protein (ATR protein [1]; 12 hours, further increase 24 hours after treatment): an increase in expression level of ATR protein was recognized
- expression level of ATR protein (ATR protein [1]; 48 hours after treatment): a decrease was recognized
- proliferation inhibition of JeKo-1 cells (JeKo-1 cells; 1 to 10 μM of 3EZ,20Ac-ingenol): grown cells were almost eliminated
- IC50 (JeKo-1 cells; MTT assay, read-out: IC50 with respect to the JeKo-1 cells): 500 nM
- expression of ATR (ATR protein [2]; cells with siRNA against ATR introduced, 12, 24, 48 hours): an increase in ATR expression was not recognized
- expression of ATR (ATR protein [2]; from 12 hours until 48 hours): the expression of ATR increased
